Read-outs that look alike come from different tables or passages of the source. Starred links: 1 amine or outer side, 2 acyl side, 3 side chain; linkers in the order of their positions; H or OH if unused. Residues, ends and D or L forms follow the SMILES beside them. Groups on a side chain read outwards from the residue. *: point of attachment. γGlu = O=C(O)[C@H](CCC(=O)[*:2])N[*:1]; Stearoyl = CCCCCCCCCCCCCCCCCC(=O)*; Palmitoyl = CCCCCCCCCCCCCCCC(=O)*; AEEA = NCCOCCOCC(=O)O
How the values were obtained:
human GLP-1 receptor = target: T1, human GLP-1 receptor (Homo sapiens, UniProt P43220); test: Functional receptor assay: cAMP formation in plasma membranes of BHK cells expressing the cloned human GLP-1 receptor (GLP1cAMPma); type: biochemical
T1 construct: expressed in transfected cells; host or cells: BHK cells, clone BHK-467-12A; plasma membrane preparation
T1 sequence (P43220 24-463): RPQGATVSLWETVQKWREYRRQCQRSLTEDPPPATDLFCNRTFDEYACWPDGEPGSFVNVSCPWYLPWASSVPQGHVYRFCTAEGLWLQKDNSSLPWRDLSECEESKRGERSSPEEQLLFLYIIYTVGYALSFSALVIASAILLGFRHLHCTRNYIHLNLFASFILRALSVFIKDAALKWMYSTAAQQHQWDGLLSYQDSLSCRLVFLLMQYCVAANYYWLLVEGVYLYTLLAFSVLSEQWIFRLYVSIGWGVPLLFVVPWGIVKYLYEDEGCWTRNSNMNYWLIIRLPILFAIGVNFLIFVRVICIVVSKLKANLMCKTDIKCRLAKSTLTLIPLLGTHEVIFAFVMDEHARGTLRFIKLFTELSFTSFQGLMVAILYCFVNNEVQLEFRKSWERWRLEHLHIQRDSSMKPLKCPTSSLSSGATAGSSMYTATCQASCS
Experimental: The term “insulinotropic agent” as used herein means a compound which is an agonist of the human GLP-1 receptor, i.e. a compound which stimulates the formation of cAMP in a suitable medium containing the human GLP-1 receptor (one such medium disclosed below). The potency of an insulinotropic agent is determined by calculating the EC50 value from the dose-response curve as described below.
The cells were washed twice in phosphate buffered saline and harvested with Versene. Plasma membranes were prepared from the cells by homogenisation with an Ultraturrax in buffer 1 (20 mM HEPES-Na, 10 mM EDTA, pH 7.4). The homogenate was centrifuged at 48,000×g for 15 min at 4° C. The pellet was suspended by homogenization in buffer 2 (20 mM HEPES-Na, 0.1 mM EDTA, pH 7.4), then centrifuged at 48,000×g for 15 min at 4° C. The washing procedure was repeated one more time. The final pellet was suspended in buffer 2 and used immediately for assays or stored at −80° C.
The functional receptor assay was carried out by measuring cyclic AMP (cAMP) as a response to stimulation by the insulinotropic agent. cAMP formed was quantified by the AlphaScreen™ cAMP Kit (Perkin Elmer Life Sciences). Incubations were carried out in half-area 96-well microtiter plates in a total volume of 50 μL buffer 3 (50 mM Tris-HCl, 5 mM HEPES, 10 mM MgCl2, pH 7.4) and with the following additions: 1 mM ATP, 1 μM GTP, 0.5 mM 3-isobutyl-1-methylxanthine (IBMX), 0.01% Tween-20, 0.1% BSA, 6 μg membrane preparation, 15 μg/mL acceptor beads, 20 μg/mL donor beads preincubated with 6 nM biotinyl-cAMP. […] GTP was freshly prepared for each experiment. The plate was incubated in the dark with slow agitation for three hours at room temperature followed by counting in the Fusion™ instrument (Perkin Elmer Life Sciences). Concentration-response curves were plotted for the individual compounds and EC50 values estimated using a four-parameter logistic model with Prism v. 4.0 (GraphPad, Carlsbad, Calif.).

[1] = Chemical stability of solubilised peptide at 40° C., impurities monitored by RP-HPLC/UPLC; type: physicochemical
Experimental: The chemical stability of solubilised acylated exendin-4 compounds were monitored by RP-HPLC following incubation at […]
The formation of exendin analogue related impurities relative to control samples stored in the freezer were monitored with a Waters UPLC system. Samples were applied to Acquity UPLC BEH C18 (1.7 μm) 2.1×50 mm column and eluted at a flow rate of 0.9 ml/min with linear stepwise gradients of acetonitrile in 0.1% trifluoroacetic acid (from 5 to 100% acetonitrile for 10 min, and from 100 to 5% acetonitrile for 1 min). The column was heated to 30 C and detection was performed at 214 nm.

For CCCCCCCCCCCCCCCCCC(=O)NCCOCCOCC(=O)NCCOCCOCC(=O)NCCOCCOCC(=O)NCCCC[C@H](NC(=O)[C@@H](NC(=O)[C@H](C)NC(=O)[C@H](CCC(=O)O)NC(=O)[C@H](CCC(=O)O)NC(=O)[C@H](CCC(=O)O)NC(=O)[C@H](CC(C)C)NC(=O)[C@H](CCC(N)=O)NC(=O)[C@H](CCCNC(=N)N)NC(=O)[C@H](CO)NC(=O)[C@H](CC(C)C)NC(=O)[C@H](CC(=O)O)NC(=O)[C@H](CO)NC(=O)[C@@H](NC(=O)[C@H](Cc1ccccc1)NC(=O)[C@@H](NC(=O)CNC(=O)[C@H](CCC(=O)O)NC(=O)CNC(=O)[C@@H](N)Cc1c[nH]cn1)[C@@H](C)O)[C@@H](C)O)C(C)C)C(=O)N[C@@H](CC(C)C)C(=O)N[C@@H](Cc1ccccc1)C(=O)N[C@H](C(=O)N[C@@H](CCC(=O)O)C(=O)N[C@@H](Cc1c[nH]c2ccccc12)C(=O)N[C@@H](CC(C)C)C(=O)N[C@@H](CCCNC(=N)N)C(=O)N[C@@H](CCC(N)=O)C(=O)NCC(=O)NCC(=O)N1CCC[C@H]1C(=O)N[C@@H](CO)C(=O)N[C@@H](CO)C(=O)NCC(=O)N[C@@H](C)C(=O)N1CCC[C@H]1C(=O)N1CCC[C@H]1C(=O)N1CCC[C@H]1C(=O)N[C@@H](CO)C(N)=O)[C@@H](C)CC [Example 14, N-ε^20-(2-(2-(2-(2-(2-(2-(2-(2-(2-(Octadecanoylamino)ethoxy)ethoxy)acetylamino)ethoxy)ethoxy)acetyl-amino)ethoxy)ethoxy)acetyl))[Arg^12,27,Gln^28,Leu^14,Lys^20 Exendin-4(1-39)amide] (H-HGEGTFTSDLSRQLEEEAVK([AEEA-AEEA-AEEA-Stearoyl])LFIEWLRQGGPSSGAPPPS-NH2; N-terminus assumed), the EC50 (human GLP-1 receptor; cAMP, membranes with human GLP-1 receptor, mean value, read-out: GLP1cAMPma (3693) [EC50 (nM)] Mean Value) was 0.017 nM and the “Formation rate of peptide related impurities at 40° C.” value ([1]; 2.5 weeks, 100 nmol peptide in 1 ml phosphate buffered saline, pH 7.4) was 1.5 %/week.
For CCCCCCCCCCCCCCCC(=O)N[C@@H](CCC(=O)NCCOCCOCC(=O)NCCOCCOCC(=O)NCCCC[C@H](NC(=O)[C@@H](NC(=O)[C@H](C)NC(=O)[C@H](CCC(=O)O)NC(=O)[C@H](CCC(=O)O)NC(=O)[C@H](CCC(=O)O)NC(=O)[C@H](CC(C)C)NC(=O)[C@H](CCC(N)=O)NC(=O)[C@H](CCC(N)=O)NC(=O)[C@H](CO)NC(=O)[C@H](CC(C)C)NC(=O)[C@H](CC(=O)O)NC(=O)[C@H](CO)NC(=O)[C@@H](NC(=O)[C@H](Cc1ccccc1)NC(=O)[C@@H](NC(=O)CNC(=O)[C@H](CCC(=O)O)NC(=O)CNC(=O)[C@@H](N)Cc1c[nH]cn1)[C@@H](C)O)[C@@H](C)O)C(C)C)C(=O)N[C@@H](CC(C)C)C(=O)N[C@@H](Cc1ccccc1)C(=O)N[C@H](C(=O)N[C@@H](CCC(=O)O)C(=O)N[C@@H](Cc1c[nH]c2ccccc12)C(=O)N[C@@H](CC(C)C)C(=O)N[C@@H](CCCCN)C(=O)N[C@@H](CCC(N)=O)C(=O)NCC(=O)NCC(=O)N1CCC[C@H]1C(=O)N[C@@H](CO)C(=O)N[C@@H](CO)C(=O)NCC(=O)N[C@@H](C)C(=O)N1CCC[C@H]1C(=O)N1CCC[C@H]1C(=O)N1CCC[C@H]1C(=O)N[C@@H](CO)C(N)=O)[C@@H](C)CC)C(=O)O [Example 48] (H-HGEGTFTSDLSQQLEEEAVK([AEEA-AEEA-γGlu-Palmitoyl])LFIEWLKQGGPSSGAPPPS-NH2; N-terminus assumed), the EC50 (human GLP-1 receptor) was 0.021 nM.
For Exendin-4 [reference compound], the “formation rate of peptide related impurities” value ([1]; 100 nmol/ml in 50 mM phosphate buffer with 0.05% Tween 80, pH 8.0) was 40-50 % per week.

From patent US9012398B2, “Acylated exendin-4 compounds” (priority 2006, dated 2015)
